Reference: patent US20080171740A1, “Chemical Compounds” (SMITHKLINE BEECHAM CORPORATION, priority 2004, published 2008)
pIC50: −log10 of the molar value. Read-outs that look alike come from different tables or passages of the source.

How the values were obtained:
Assay type in all cases: cell-based
[1] = biological target: T1, CXCR4 receptor (Homo sapiens, UniProt P61073); assay: Functional FLIPR assay (block of SDF-1 alpha induced [Ca2+]i change); conditions: HEK-293 cells with human CXCR4 BacMam and Gqi5 BacMam; antagonism of SDF-1 alpha; read-out: Functional assay (pIC50) (converted)
T1 construct: expressed in transfected cells; host or cells: HEK-293 cells (stably expressing human macrophage scavenging receptor) transduced with human CXCR4 BacMam and Gqi5 BacMam
T1 sequence (P61073 whole entry): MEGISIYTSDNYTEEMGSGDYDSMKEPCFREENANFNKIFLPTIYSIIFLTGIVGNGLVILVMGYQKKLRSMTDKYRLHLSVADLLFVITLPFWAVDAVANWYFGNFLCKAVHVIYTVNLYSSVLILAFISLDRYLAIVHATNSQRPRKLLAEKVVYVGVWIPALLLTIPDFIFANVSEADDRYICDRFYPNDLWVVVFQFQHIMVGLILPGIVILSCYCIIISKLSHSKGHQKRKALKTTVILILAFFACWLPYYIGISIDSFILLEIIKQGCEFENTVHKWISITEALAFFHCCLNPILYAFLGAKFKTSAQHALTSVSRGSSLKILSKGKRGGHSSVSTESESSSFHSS
Protocol: Human embryonic kidney (HEK-293) cells were maintained and harvested as described above. Cells were plated in 96-well, black clear bottom, poly-lysine coated plates at a concentration of 40,000 cells per well in a final volume of 100 ul containing human CXCR4 BacMam (MOI=25) and Gqi5 BacMam (MOI=12.5). The cells were incubated at 37° C., 5% CO2, 95% humidity for 24 h to allow for protein expression.
After the required incubation time the cells were washed once with 50 ul of fresh serum-free DMEM/F12 media containing probenicid. 50 ul of dye solution was then added to the cells (Calcium Plus Assay Kit Dye; Molecular Devices) was dissolved in 200 ml of the above probenicid/BSA containing media and incubated for 1 h. Cell plates were transferred to a Fluorometric Imaging Plate Reader (FLIPR). Upon addition the effect of the compounds on the change in [Ca^2+]i was examined to determine if the compounds were agonists or antagonists (ability to block SDF-1 alpha activity) at the CXCR4 receptor. IC50 values are determined and pKb values are calculated using the Leff and Dougall equation: KB=IC50/((2+([agonist]/EC50̂b)̂1/b -1) Where IC50 is that defined by the antagonist concentration-response curve [agonist] is the EC80 concentration of agonist used EC50 is that defined by the agonist concentration-response curve b is the slope of the agonist concentration-response curve.

[2] = system: HIV-1 gp160 (HXB2 strain) mediated fusion with HOS (hCXCR4/hCCR5/hCD4/pHIV-LTR-luciferase) cells; assay: Cell/cell fusion assay (HEK-293 expressing HIV-1 tat, rev, gp160 with HOS hCXCR4/hCCR5/hCD4/pHIV-LTR-luciferase cells); conditions: Homo sapiens, HEK293; luciferase readout after 24 h; read-out: Fusion assay (pIC50) (converted)
From the text: The complete coding sequences of HIV-1 tat (GenBank Accession No. X07861) and rev (GenBank Accession No. M34378) were cloned into pcDNA3.1 expression vectors containing G418 and hygromycin resistance genes, respectively. The complete coding sequence of the HIV-1 (HXB2 strain) gp160 envelope gene (nucleotide bases 6225-8795 of GenBank Accession No. K03455) was cloned into plasmid pCRII-TOPO. The three HIV genes were additionally inserted into the baculovirus shuttle vector, pFastBacMam1, under the transcriptional control of the CMV promoter. A construction of the pHIV-I LTR containing mutated NFkB sequences linked to the luciferase reporter gene was prepared by digesting pcDNA3.1, containing the G418 resistance gene, with Nru I and Bam HI to remove the CMV promoter. LTR-luc was then cloned into the Nru I/Bam HI sites of the plasmid vector. Plasmid preparations were performed after the plasmids were amplified in Escherichia coli strain DH5-alpha. The fidelity of the inserted sequences was confirmed by double-strand nucleotide sequencing using an ABI Prism Model 377 automated sequencer.
Recombinant BacMam baculoviruses were constructed from pFastBacMam shuttle plasmids by using the bacterial cell-based Bac-to-Bac system. Viruses were propagated in Sf9 (Spodoptera frugiperda) cells cultured in Hink's TNM-FH Insect media supplemented with 10% (v/v) fetal bovine serum and 0.1% (v/v) pluronic F-68 according to established protocols.
Human osteosarcoma (HOS) cells that naturally express human CXCR4 were transfected with human CCR5, human CD4 and the pHIV-LTR-luciferase plasmid using FuGENE 6 transfection reagent. Single cells were isolated and grown under selection condition in order to generate a stable HOS (hCXCR4/hCCR5/hCD4/pHIV-LTR-luciferase) clonal cell line. The cells were maintained in Dulbeccos modified Eagles media supplemented with 10% fetal calf serum (FCS), G418 (400 ug/ml), puromycin (1 ug/ml), mycophenolic acid (40 ug/ml), xanthine (250 ug/ml) and hypoxanthine (13.5 ug/ml) to maintain a selection pressure for cells expressing the LTR-luciferase, hCCR5 and hCD4, respectively. Human embryonic kidney (HEK-293) cells stably transfected to express the human macrophage scavenging receptor (Class A, type 1; GenBank Accession No. D90187), were maintained in DMEM/F-12 media (1:1) supplemented with 10% FCS and 1.5 ug/ml puromycin. The expression of this receptor by the HEK-293 cells enhances their ability to stick to tissue culture treated plasticware.
HEK-293 cells were harvested using enzyme-free cell dissociation buffer. The cells were resuspended in DMEM/F-12 media supplemented with 10% FCS and 1.5 ug/ml and counted. Tranductions were performed by direct addition of BacMam baculovirus containing insect cell media to cells. The cells were simultaneously transduced with BacMam baculovirus expressing HIV-1 tat, HIV-1 rev and HIV-1 gp160 (from the HXB2 HIV strain). Routinely an MOI of 10 of each virus was added to the media containing the cells. 2 mM butyric acid was also added to the cells at this stage to increase protein expression in transduced cells. The cells were subsequently mixed and seeded into a flask at 30 million cells per T225. The cells were incubated at 37° C., 5% CO2, 95% humidity for 24 h to allow for protein expression.
HEK and HOS cells were harvested in DMEM/F-12 media containing 2% FCS and DMEM media containing 2% FCS, respectively, with no selection agents added. Compounds were plated as 1 ul spots in 100% DMSO on a 96-well CulturPlate plates. HOS cells (50 ul) were added first to the wells, followed immediately by the HEK cells (50 ul). The final concentration of each cell type was 20,000 cells per well. Following these additions, the cells were returned to a tissue culture incubator (37° C.; 5% CO2/95% air) for an additional 24 h.
Following the 24 h incubation, total cellular luciferase activity was measured using the LucLite Plus assay kit (Packard, Meridien, Conn.). […]

[3] = Compound cytotoxicity in the absence of virus (CellTiter-Glo); conditions: human; non-infected HOS cultures, cell viability; read-out: Cytotox (pIC50) (converted)
Protocol: (§1) Compounds were profiled against two HIV-1 viruses, the M-tropic (CCR5 utilizing) Ba-L strain and the T-tropic (CXCR4 utilizing) IIIB strain. Both viruses were propagated in human peripheral blood lymphocytes. Compounds were tested for there ability to block infection of the HOS cell line (expressing hCXCR4/hCCR5/hCD4/pHIV-LTR-luciferase) by either HIV-1 Ba-L or HIV-1 IIIB. Compound cytotoxicity was also examined in the absence of virus addition.
(§2) HOS cells (expressing hCXCR4/hCCR5/hCD4/pHIV-LTR-luciferase) were harvested and diluted in Dulbeccos modified Eagles media supplemented with 2% FCS and non-essential amino acid to a concentration of 60,000 cells/ml. The cells were plated into 96-well plates (100 ul per well) and the plates were placed in a tissue culture incubator (37° C.; 5% CO2/95% air) for a period of 24 h.
(§3) Subsequently, 50 ul of the desired drug solution (4 times the final concentration) was added to each well and the plates were returned to the tissue culture incubator (37° C.; 5% CO2/95% air) for 1 h. Following this incubation 50 ul of diluted virus was added to each well (approximately 2 million RLU per well of virus). The plates were returned to the tissue culture incubator (37° C.; 5% CO2/95% air) and were incubated for a further 96 h.
(§4) Following this incubation the endpoint for the virally infected cultures was quantified following addition of Steady-Glo Luciferase assay system reagent (Promega, Madison, Wis.). Cell viability or non-infected cultures was measured using a CellTiter-Glo luminescent cell viability assay system (Promega, Madison, Wis.). All luminescent readouts are performed on a Topcount luminescence detector (Packard, Meridien, Conn.).

[4] = system: HIV-1 IIIB strain, T-tropic (CXCR4 utilizing); assay: HOS HIV-1 infectivity assay; conditions: for IC50: HOS, read-out: HOS (3B) (μM)
Protocol: as §1, §2, §3, §4

[5] = Human immunodeficiency virus 1, IIIB, HOS HIV anti-infectivity assay, strain not named in Table 2, read-out: Activity Level
[6] = Human immunodeficiency virus 1, HOS cells, HIV-1 IIIB, 96 h, luciferase, read-out: HOS (3B)
[7] = Human immunodeficiency virus 1, IIIB, 96 h
[8] = Human immunodeficiency virus 1, IIIB, read-out: Activity Level

| SMILES | IC50 [1] [nM] | IC50 [2] [nM] | IC50 at 96 h [3] [nM] | pIC50 [4, 5] | pIC50 [4, 6] | IC50 [4, 7] [µM] | pIC50 [4, 8] |
| --- | --- | --- | --- | --- | --- | --- | --- |
| NCCCCN(Cc1cn2c(Br)cccc2n1)C1CCCc2cccnc21 (stereo not drawn) [Example 12, N-[(5-Bromoimidazo[1,2-a]pyridin-2-yl)methyl]-N-(5,6,7,8-tetrahydro-8-quinolinyl)-1,4-butanediamine] | 9.77 | 28.8 | > 100000 | > 7.00 | 8.00 |  |  |
| NCCCCN(Cc1cn2cc(C(F)(F)F)ccc2n1)C1CCCc2cccnc21 (stereo not drawn) [Example 7, N-(5,6,7,8-Tetrahydro-8-quinolinyl)-N-{[6-(trifluoromethyl)imidazo[1,2-a]pyridin-2-yl]methyl}-1,4-butanediamine] | 63.1 | 191 | > 100000 | 6.30 to 7.00 | 6.79 |  |  |
| COc1cccc2nc(CN(CCCCN)C3CCCc4cccnc43)cn12 (stereo not drawn) [Example 25, N-{[5-(Methyloxy)imidazo[1,2-a]pyridin-2-yl]methyl}-N-(5,6,7,8-tetrahydro-8-quinolinyl)-1,4-butanediamine] | 10.2 | 123 | > 100000 | > 7.00 | 7.82 |  |  |
| Cc1ccc2nc(CN(CCCCN)C3CCCc4cccnc43)cn2c1 (stereo not drawn) [Example 4, N-[(6-Methylimidazo[1,2-a]pyridin-2-yl)methyl]-N-(5,6,7,8-tetrahydro-8-quinolinyl)-1,4-butanediamine] | 52.5 | 97.7 | > 100000 | > 7.00 | 7.24 |  |  |
| NCCCCN(Cc1cn2c(N3CCCC3)cccc2n1)C1CCCc2cccnc21 (stereo not drawn) [Example 21, N-{[5-(1-Pyrrolidinyl)imidazo[1,2-a]pyridin-2-yl]methyl}-N-(5,6,7,8-tetrahydro-8-quinolinyl)-1,4-butanediamine] | 20 | 102 | > 100000 |  |  | 0.038 | > 7.00 |
| Cc1cccn2cc(CN(CCCCN)C3CCCc4cccnc43)nc12 (stereo not drawn) [Example 2, N-[(8-Methylimidazo[1,2-a]pyridin-2-yl)methyl]-N-(5,6,7,8-tetrahydro-8-quinolinyl)-1,4-butanediamine] | 53.7 | 324 | > 100000 |  |  | 0.023 | > 7.00 |
| Cc1cc(Br)cn2cc(CN(CCCCN)C3CCCc4cccnc43)nc12 (stereo not drawn) [Example 19, N-[(6-Bromo-8-methylimidazo[1,2-a]pyridin-2-yl)methyl]-N-(5,6,7,8-tetrahydro-8-quinolinyl)-1,4-butanediamine] | 67.6 | 537 | > 100000 | 6.30 to 7.00 | 6.85 |  |  |
| NCCCCN(Cc1cn2c(C(F)(F)F)cccc2n1)C1CCCc2cccnc21 (stereo not drawn) [Example 8, N-(5,6,7,8-Tetrahydro-8-quinolinyl)-N-{[5-(trifluoromethyl)imidazo[1,2-a]pyridin-2-yl]methyl}-1,4-butanediamine] | 19.5 | 174 | > 100000 | > 7.00 | 7.35 |  |  |
| Cc1cc(C)n2cc(CN(CCCCN)C3CCCc4cccnc43)nc2c1 (stereo not drawn) [Example 15, N-[(5,7-Dimethylimidazo[1,2-a]pyridin-2-yl)methyl]-N-(5,6,7,8-tetrahydro-8-quinolinyl)-1,4-butanediamine] | 93.3 | 316 | > 100000 | 6.30 to 7.00 | 6.95 |  |  |
| NCCCCN(Cc1cn2ccc(C(F)(F)F)cc2n1)C1CCCc2cccnc21 (stereo not drawn) [Example 6, N-(5,6,7,8-Tetrahydro-8-quinolinyl)-N-{[7-(trifluoromethyl)imidazo[1,2-a]pyridin-2-yl]methyl}-1,4-butanediamine] | 2190 | 4470 | > 100000 | 5.00 to 6.30 | 5.85 |  |  |
| NCCCCN(Cc1cn2c(N3CCNCC3)cccc2n1)C1CCCc2cccnc21 (stereo not drawn) [Example 22, N-{[5-(1-piperazinyl)imidazo[1,2-a]pyridin-2-yl]methyl}-N-(5,6,7,8-tetrahydro-8-quinolinyl)-1,4-butanediamine] | 2.88 | 2.82 | > 100000 | > 7.00 | 8.66 |  |  |
| NCCCCN(Cc1cn2cc(Cl)ccc2n1)C1CCCc2cccnc21 (stereo not drawn) [Example 10, N-[(6-Chloroimidazo[1,2-a]pyridin-2-yl)methyl]-N-(5,6,7,8-tetrahydro-8-quinolinyl)-1,4-butanediamine] | 29.5 | 115 | > 100000 | > 7.00 | 7.39 |  |  |
